# Measured values taken from patent publication US6489334B2, “Method for the crystallization of a tetrahydropyridin derivative and resulting crystalline forms” (Sanofi-Synthelabo, priority 1996, dated 2002).
# Key:
# CACO-2 monolayer = assay type: in vitro ADME
# Experimental: A study concerning the determination of the in vitro absorption of SR 57746 A as a micronized form I/III mixture was carried out using the CACO-2 monolayer model. This test, which is widely used as a predictive intestinal epithelial model for drug absorption (P. Artusson, Crit. Rev. Ther. Drug, 1991, 8: 305-330), made it possible to show significant differences in terms of dissolution and permeability between SR 57746 A as a micronized form I/III mixture and the SR 57746 A obtained according to EP 0 101 381.
# [1] = Phase I clinical trials on healthy volunteers; assay type: in vivo
# [2] = test system: amyotrophic lateral sclerosis; conditions: 2 mg/day; cited from earlier work
# [3] = preclinical animal pharmacology, toxicology and pharmacokinetic studies; assay type: in vivo, animals
SMILES,dissolution and permeability after micronization (CACO-2 monolayer),"rates of dissolution and permeability, compared between the two materials (CACO-2 monolayer)",variability in the pharmacodynamic effects [1],variability in the plasma concentrations [1],clinical outcome in amyotrophic lateral sclerosis patients [2],pharmacokinetic studies on animals ([3]; animals),activity and behavior in animal pharmacology and toxicology tests ([3]; preclinical trials)
"Cl.FC(F)(F)c1cccc(C2=CCN(CCc3ccc4ccccc4c3)CC2)c1 [1-[2-(2-naphthyl)ethyl]-4-(3-trifluoromethylphenyl)-1,2,3,6-tetrahydropyridine hydrochloride]",normalized,significantly different,,,,,
"Cl.FC(F)(F)c1cccc(C2=CCN(CCc3ccc4ccccc4c3)CC2)c1 [SR 57746 A, 1-[2-(2-naphthyl)ethyl]-4-(3-trifluoromethylphenyl)-1,2,3,6-tetrahydropyridine hydrochloride]",,,high variability,high variability,proved promising,constant and reproducible results,constant activity and behavior
